Two compounds from patent EP4755384A1, “PHARMACEUTICAL COMPOSITION CONTAINING ANDROGEN RECEPTOR INHIBITOR/ANTAGONIST, METHOD AND USE” (Suzhou Kintor Pharmaceuticals, Inc., priority 2023, dated 2025) can be followed below.

Assay [1] deals with mice. The assay is described as follows: In-vivo efficacy experiment 1: hair scoring in depilated mice given DHT. Further details: key: 0 = no skin darkening, 5 = complete hair growth. Here is the method:
100 mice were deeply anesthetized. First, the hair on the back of the mice was shaved off with an animal hair clipper. Then, depilatory cream (Veet, https://item.jd.com/6291245.html) was evenly applied to the skin surface of the mice. After leaving it for 7-10 minutes, the remaining hair was gently scraped off against the hair growth direction with a depilatory spatula. Finally, the residual depilatory cream on the skin surface was thoroughly washed off with a wet wipe to avoid skin burns in the mice.
The main observation indicators of this experiment are shown in FIG. 12 (literature on hair scoring: Biomolecules & Therapeutics, 17(3), 241-248 (2009)), which is described as follows: (Score 0: No darkening of skin colour observed in any areas; Score 1: Darkening of skin area from greyish to black; Score 2: Visible short hairs; Score 3: Sparse hairs; Score 4: Dense hairs; Score 5: Complete hair growth). After depilation, the mice were photographed and scored three times a week until the end of the experiment.
100 mice were deeply anesthetized. First, the hair on the back of the mice was shaved off with an animal hair clipper. Then, depilatory cream was evenly applied to the skin surface of the mice. After leaving it for 7-10 minutes, the remaining hair was gently scraped off against the hair growth direction with a depilatory spatula. Finally, the residual depilatory cream on the skin surface was thoroughly washed off with a wet wipe to avoid skin burns in the mice.
DHT and test substances (compound of formula I and minoxidil) were administered starting on the day following depilation, which was recorded as Day 1 (the day of depilation was recorded as Day 0). 64 mice in good condition were randomly selected and assigned to each group. Table 1 Experimental grouping
According to the grouping in Table 1, and the corresponding administration dose, test substance concentration and administration volume, […] above experimental design and methods. For groups G7 and G8, which received a combined administration of the compound of formula I and minoxidil, one drug was administered first followed by the other, with the administration interval between the two drugs not exceeding 1 minute.
(§1) Starting from the first day of administration, body weight was weighed and recorded twice a week, and hair regrowth (anagen) scoring and photography were performed […], until the end of the experiment. Scoring was conducted according to the criteria described in the experimental design.

In assay [2] the test system is mice. The assay is described as follows: In-vivo efficacy experiment 2: hair scoring in depilated mice given DHT. Further details: key: 0 = no skin darkening, 5 = complete hair growth. As to the method:
120 mice were deeply anesthetized. First, the hair on the back of the mice was shaved off with an animal hair clipper. Then, depilatory cream (Veet, https://item.jd.com/6291245.html) was evenly applied to the skin surface of the mice. After leaving it for 7-10 minutes, the remaining hair was gently scraped off against the hair growth direction with a depilatory spatula. Finally, the residual depilatory cream on the skin surface was thoroughly washed off with a wet wipe to avoid skin burns in the mice.
DHT and test substances (compound of formula I and minoxidil) were administered starting on the day following depilation, which was recorded as Day 1 (the day of depilation was recorded as Day 0). 86 mice in good condition were randomly selected and assigned to each group.
The main observation indicators of this experiment are shown in FIG. 12 (literature on hair scoring: Biomolecules & Therapeutics, 17(3), 241-248 (2009)), which is described as follows: (Score 0: No darkening of skin colour observed in any areas; Score 1: Darkening of skin area from greyish to black; Score 2: Visible short hairs; Score 3: Sparse hairs; Score 4: Dense hairs; Score 5: Complete hair growth). After depilation, the mice were photographed and scored three times a week until the end of the experiment. Table 4 Experimental grouping
According to the grouping in Table 4, and the corresponding administration dose, test substance concentration and administration volume, […] above experimental design and methods. For groups G6, G7 and G8, which received a combined administration of the compound of formula I and minoxidil, one drug was administered first followed by the other, with the administration interval between the two drugs not exceeding 1 minute.
as §1

Setting [3] is: Day 11, compound of formula I 0.5% (5 mg/mL) 150 µL topical QD, DHT 30 mg/kg subcutaneous QD.
The mark [4] stands for this setting: Day 21, compound of formula I 0.5% (5 mg/mL) 150 µL topical QD, DHT 30 mg/kg subcutaneous QD.
Setting [5] is: Day 11, DHT model group: DHT 30 mg/kg subcutaneous injection QD + vehicle topical.
Setting [6] is: Day 21, DHT model group: DHT 30 mg/kg subcutaneous injection QD + vehicle topical.

Take `COc1c(C#N)ccc(N2C(=O)C(C)(C)N(c3ccc(C)nc3)C2=S)c1F` [compound of formula I, 4-(4,4-dimethyl-3-(6-methylpyridin-3-yl)-5-oxo-2-thioxoimidazolidin-1-yl)-3-fluoro-2-methoxybenzonitrile]: the “Hair scoring in mice, Score” value in the assay with mice [1] (Day 7, compound of formula I 0.5% (5 mg/mL) 150 µL topical QD, DHT 30 mg/kg subcutaneous QD) turned out to be 0.00; with mice [1] (Day 7, compound of formula I 1.0% (10 mg/mL) 150 µL topical QD, DHT 30 mg/kg subcutaneous QD), 0.00; in the assay with mice [1] (Day 9, compound of formula I 0.5% (5 mg/mL) 150 µL topical QD, DHT 30 mg/kg subcutaneous QD) it was 0.13; in the assay with mice [1] (Day 9, compound of formula I 1.0% (10 mg/mL) 150 µL topical QD, DHT 30 mg/kg subcutaneous QD) it was 0.13; with mice [1] (setting [3]), 0.38; in the assay on mice [1] (Day 11, compound of formula I 1.0% (10 mg/mL) 150 µL topical QD, DHT 30 mg/kg subcutaneous QD), 0.13. Moreover, the “Hair scoring in mice, Score” value with mice [1] (Day 14, compound of formula I 0.5% (5 mg/mL) 150 µL topical QD, DHT 30 mg/kg subcutaneous QD) came out at 0.88; in the assay on mice [1] (Day 14, compound of formula I 1.0% (10 mg/mL) 150 µL topical QD, DHT 30 mg/kg subcutaneous QD), 0.38; with mice [1] (Day 16, compound of formula I 0.5% (5 mg/mL) 150 µL topical QD, DHT 30 mg/kg subcutaneous QD), 1.13; with mice [1] (Day 16, compound of formula I 1.0% (10 mg/mL) 150 µL topical QD, DHT 30 mg/kg subcutaneous QD), 1.00; in the assay with mice [1] (Day 18, compound of formula I 0.5% (5 mg/mL) 150 µL topical QD, DHT 30 mg/kg subcutaneous QD) it was 1.75; in the assay with mice [1] (Day 18, compound of formula I 1.0% (10 mg/mL) 150 µL topical QD, DHT 30 mg/kg subcutaneous QD) it was 1.38. Further, the “Hair scoring in mice, Score” value in the assay with mice [1] (setting [4]) was 2.25; in the assay with mice [1] (Day 21, compound of formula I 1.0% (10 mg/mL) 150 µL topical QD, DHT 30 mg/kg subcutaneous QD) it was 1.88; with mice [1] (Day 23, compound of formula I 0.5% (5 mg/mL) 150 µL topical QD, DHT 30 mg/kg subcutaneous QD) it was 2.50; with mice [1] (Day 23, compound of formula I 1.0% (10 mg/mL) 150 µL topical QD, DHT 30 mg/kg subcutaneous QD), 2.38. Moreover, the “Hair scoring in mice” value with mice [2] (Day 8, compound of formula I 0.25% (2.5 mg/mL) 150 µL topical QD, DHT 30 mg/kg subcutaneous QD) amounted to 0.00; with mice [2] (Day 8, compound of formula I 0.5% (5 mg/mL) 150 µL topical QD, DHT 30 mg/kg subcutaneous QD) it was 0.00; in the assay on mice [2] (Day 11, compound of formula I 0.25% (2.5 mg/mL) 150 µL topical QD, DHT 30 mg/kg subcutaneous QD), 0.00; in the assay with mice [2] (setting [3]) it was 0.00; in the assay on mice [2] (Day 15, compound of formula I 0.25% (2.5 mg/mL) 150 µL topical QD, DHT 30 mg/kg subcutaneous QD), 0.60; in the assay on mice [2] (Day 15, compound of formula I 0.5% (5 mg/mL) 150 µL topical QD, DHT 30 mg/kg subcutaneous QD) it was 0.90. Also, the “Hair scoring in mice” value was 1.00 with mice [2] (Day 17, compound of formula I 0.25% (2.5 mg/mL) 150 µL topical QD, DHT 30 mg/kg subcutaneous QD); 1.40 in the assay with mice [2] (Day 17, compound of formula I 0.5% (5 mg/mL) 150 µL topical QD, DHT 30 mg/kg subcutaneous QD); 1.40 with mice [2] (Day 19, compound of formula I 0.25% (2.5 mg/mL) 150 µL topical QD, DHT 30 mg/kg subcutaneous QD); 1.70 with mice [2] (Day 19, compound of formula I 0.5% (5 mg/mL) 150 µL topical QD, DHT 30 mg/kg subcutaneous QD); 1.80 with mice [2] (Day 21, compound of formula I 0.25% (2.5 mg/mL) 150 µL topical QD, DHT 30 mg/kg subcutaneous QD); 2.20 with mice [2] (setting [4]).

Regarding `C[C@]12CCC(=O)C[C@@H]1CC[C@@H]1[C@@H]2CC[C@]2(C)[C@@H](O)CC[C@@H]12` [DHT, Dihydrotestosterone], the “Hair scoring in mice, Score” value with mice [1] (Day 7, DHT model group: DHT 30 mg/kg subcutaneous injection QD + vehicle topical) was 0.00; in the assay on mice [1] (Day 9, DHT model group: DHT 30 mg/kg subcutaneous injection QD + vehicle topical) it was 0.00; in the assay with mice [1] (setting [5]), 0.13; in the assay with mice [1] (Day 14, DHT model group: DHT 30 mg/kg subcutaneous injection QD + vehicle topical), 0.38; in the assay on mice [1] (Day 16, DHT model group: DHT 30 mg/kg subcutaneous injection QD + vehicle topical), 0.63; in the assay on mice [1] (Day 18, DHT model group: DHT 30 mg/kg subcutaneous injection QD + vehicle topical), 1.25. Besides, the “Hair scoring in mice, Score” value came to 1.75 in the assay with mice [1] (setting [6]) and 2.13 in the assay on mice [1] (Day 23, DHT model group: DHT 30 mg/kg subcutaneous injection QD + vehicle topical). The “Hair scoring in mice” value in the assay on mice [2] (Day 8, DHT model group: DHT 30 mg/kg subcutaneous injection QD + vehicle topical) turned out to be 0.00; with mice [2] (setting [5]), 0.00; in the assay with mice [2] (Day 15, DHT model group: DHT 30 mg/kg subcutaneous injection QD + vehicle topical), 0.40; in the assay with mice [2] (Day 17, DHT model group: DHT 30 mg/kg subcutaneous injection QD + vehicle topical) it was 0.50; with mice [2] (Day 19, DHT model group: DHT 30 mg/kg subcutaneous injection QD + vehicle topical) it was 0.90; with mice [2] (setting [6]) it was 1.10.
